# According to ChEMBL document CHEMBL1152860, “Synthesis and antiproliferative activity of 3-amino-N-phenyl-1H-indazole-1-carboxamides” (2009):
# Active and inactive are the calls of the source. No cut-off for these calls is given here.
# What was measured:
# [1] = Growth inhibition of human Hs 578T cells after 48 hrs by SRB assay; format: functional
# [2] = tested on: RPMI-8226; assay: Growth inhibition of human RPMI8226 cells after 48 hrs by SRB assay; format: functional; settings: RPMI-8226, 48 h
# [3] = tested on: MCF7; assay: Growth inhibition of human MCF7 cells after 48 hrs by SRB assay; format: functional; settings: MCF7, 48 h
# [4] = tested on: NCI-H322M; assay: Growth inhibition of human NCI-H322M cells after 48 hrs by SRB assay; format: functional
# [5] = tested on: K562; assay: Growth inhibition of human K562 cells after 48 hrs by SRB assay; format: functional; settings: K562, 48 h
# [6] = tested on: SW-620; assay: Growth inhibition of human SW620 cells after 48 hrs by SRB assay; format: functional; settings: SW-620, 48 h
# [7] = tested on: A549; assay: Growth inhibition of human A549 cells after 48 hrs by SRB assay; format: functional; settings: A549, 48 h
# [8] = tested on: HOP-92; assay: Growth inhibition of human HOP92 cells after 48 hrs by SRB assay; format: functional; settings: HOP-92, 48 h
# [9] = tested on: DU-145; assay: Growth inhibition of human DU145 cells after 48 hrs by SRB assay; format: functional; settings: DU-145, 48 h
# [10] = tested on: K562; assay: Cell cycle arrest in human K562 cells assessed as accumulation at S phase at 140 uM after 24 hrs using propidium iodide staining by flow cytometry; format: functional, cell-based
# [11] = tested on: HCT-15; assay: Growth inhibition of human HCT15 cells after 48 hrs by SRB assay; format: functional; settings: HCT-15, 48 h
# [12] = tested on: NCI/ADR-RES; assay: Growth inhibition of human NCI/ADR-RES cells after 48 hrs by SRB assay; format: functional
# [13] = tested on: SK-MEL-28; assay: Growth inhibition of human SK-MEL-28 cells after 48 hrs by SRB assay; format: functional; settings: SK-MEL-28, 48 h
# [14] = tested on: SF-268; assay: Growth inhibition of human SF268 cells after 48 hrs by SRB assay; format: functional; settings: SF-268, 48 h
# [15] = tested on: SR; assay: Growth inhibition of human SR cells after 48 hrs by SRB assay; format: functional
# [16] = tested on: SN12C; assay: Growth inhibition of human SN12C cells after 48 hrs by SRB assay; format: functional
# [17] = tested on: SF-539; assay: Growth inhibition of human SF539 cells after 48 hrs by SRB assay; format: functional; settings: SF-539, 48 h
# [18] = tested on: RXF 393; assay: Growth inhibition of human […] cells after 48 hrs by SRB assay; format: functional; settings: RXF 393, 48 h
# [19] = tested on: OVCAR-3; assay: Growth inhibition of human OVCAR-3 cells after 48 hrs by SRB assay; format: functional; settings: OVCAR-3, 48 h
# [20] = tested on: CAKI-1; assay: Growth inhibition of human Caki1 cells after 48 hrs by SRB assay; format: functional; settings: CAKI-1, 48 h
# [21] = tested on: Malme-3M; assay: Growth inhibition of human MALME-3M cells after 48 hrs by SRB assay; format: functional
# [22] = tested on: MDA-MB-435; assay: Growth inhibition of human MDA-MB-435 cells after 48 hrs by SRB assay; format: functional; settings: MDA-MB-435, 48 h
# [23] = tested on: OVCAR-4; assay: Growth inhibition of human OVCAR4 cells after 48 hrs by SRB assay; format: functional; settings: OVCAR-4, 48 h
# [24] = tested on: NCI-H460; assay: Growth inhibition of human NCI-H460 cells after 48 hrs by SRB assay; format: functional; settings: NCI-H460, 48 h
# [25] = tested on: HT-29; assay: Growth inhibition of human HT-29 cells after 48 hrs by SRB assay; format: functional; settings: HT-29, 48 h
# [26] = tested on: BT-549; assay: Growth inhibition of human BT549 cells after 48 hrs by SRB assay; format: functional; settings: BT-549, 48 h
# [27] = tested on: HCC 2998; assay: Growth inhibition of human HCC2998 cells after 48 hrs by SRB assay; format: functional; settings: HCC 2998, 48 h
# [28] = tested on: LOX IMVI; assay: Growth inhibition of human LOXIMVI cells after 48 hrs by SRB assay; format: functional
# [29] = tested on: EKVX; assay: Growth inhibition of human EKVX cells after 48 hrs by SRB assay; format: functional
# [30] = tested on: OVCAR-8; assay: Growth inhibition of human OVCAR8 cells after 48 hrs by SRB assay; format: functional; settings: OVCAR-8, 48 h
# [31] = tested on: HL-60(TB); assay: Growth inhibition of human HL-60(TB) cells after 48 hrs by SRB assay; format: functional; settings: HL-60, 48 h
# [32] = tested on: MDA-MB-231; assay: Growth inhibition of human MDA-MB-231 cells after 48 hrs by SRB assay; format: functional; settings: MDA-MB-231, 48 h
# [33] = tested on: KM12; assay: Growth inhibition of human KM12 cells after 48 hrs by SRB assay; format: functional; settings: KM12, 48 h
# [34] = tested on: NCI-H226; assay: Growth inhibition of human NCI-H226 cells after 48 hrs by SRB assay; format: functional; settings: NCI-H226, 48 h
# [35] = tested on: NCI-H23; assay: Growth inhibition of human NCI-H23 cells after 48 hrs by SRB assay; format: functional; settings: NCI-H23, 48 h
# [36] = tested on: SK-OV-3; assay: Growth inhibition of human SKOV3 cells after 48 hrs by SRB assay; format: functional; settings: SK-OV-3, 48 h
# [37] = tested on: K562; assay: Cell cycle arrest in human K562 cells assessed as accumulation at G2/M phase at 140 uM after 24 hrs using propidium iodide staining by flow cytometry; format: functional, cell-based
# [38] = tested on: UACC-257; assay: Growth inhibition of human UACC257 cells after 48 hrs by SRB assay; format: functional; settings: UACC-257, 48 h
# [39] = tested on: ACHN; assay: Growth inhibition of human ACHN cells after 48 hrs by SRB assay; format: functional
# [40] = tested on: A498; assay: Growth inhibition of human A498 cells after 48 hrs by SRB assay; format: functional; settings: A498, 48 h
# [41] = tested on: UO-31; assay: Growth inhibition of human UO31 cells after 48 hrs by SRB assay; format: functional; settings: UO-31, 48 h
# [42] = tested on: IGROV-1; assay: Growth inhibition of human IGROV1 cells after 48 hrs by SRB assay; format: functional; settings: IGROV-1, 48 h
# [43] = tested on: SNB-19; assay: Growth inhibition of human SNB19 cells after 48 hrs by SRB assay; format: functional; settings: SNB-19, 48 h
# [44] = tested on: PC-3; assay: Growth inhibition of human PC3 cells after 48 hrs by SRB assay; format: functional; settings: PC-3, 48 h
# [45] = tested on: U-251; assay: Growth inhibition of human U251 cells after 48 hrs by SRB assay; format: functional; settings: U-251, 48 h
# [46] = tested on: COLO 205; assay: Growth inhibition of human COLO205 cells after 48 hrs by SRB assay; format: functional; settings: COLO 205, 48 h
# [47] = tested on: MOLT-4; assay: Growth inhibition of human MOLT4 cells after 48 hrs by SRB assay; format: functional; settings: MOLT-4, 48 h
# [48] = tested on: HCT-116; assay: Growth inhibition of human HCT116 cells after 48 hrs by SRB assay; format: functional; settings: HCT-116, 48 h
# [49] = tested on: M14; assay: Growth inhibition of human M14 cells after 48 hrs by SRB assay; format: functional; settings: M14, 48 h
# [50] = tested on: SF-295; assay: Growth inhibition of human SF295 cells after 48 hrs by SRB assay; format: functional; settings: SF-295, 48 h
# [51] = tested on: HOP-62; assay: Growth inhibition of human HOP62 cells after 48 hrs by SRB assay; format: functional; settings: HOP-62, 48 h
# [52] = tested on: SNB-75; assay: Growth inhibition of human SNB75 cells after 48 hrs by SRB assay; format: functional; settings: SNB-75, 48 h
# [53] = tested on: TK-10; assay: Growth inhibition of human TK10 cells after 48 hrs by SRB assay; format: functional; settings: TK-10, 48 h
# [54] = tested on: UACC-62; assay: Growth inhibition of human UACC62 cells after 48 hrs by SRB assay; format: functional; settings: UACC-62, 48 h
# [55] = tested on: SK-MEL-5; assay: Growth inhibition of human SK-MEL-5 cells after 48 hrs by SRB assay; format: functional; settings: SK-MEL-5, 48 h
# [56] = tested on: OVCAR-5; assay: Growth inhibition of human OVCAR5 cells after 48 hrs by SRB assay; format: functional; settings: OVCAR-5, 48 h
# [57] = tested on: 786-0; assay: Growth inhibition of human 786-0 cells after 48 hrs by SRB assay; format: functional; settings: 786-0, 48 h
# [58] = tested on: SK-MEL-2; assay: Growth inhibition of human SK-MEL-2 cells after 48 hrs by SRB assay; format: functional; settings: SK-MEL-2, 48 h
# [59] = tested on: T47D; assay: Growth inhibition of human T47D cells after 48 hrs by SRB assay; format: functional
# [60] = tested on: NCI-H522; assay: Growth inhibition of human NCI-H522 cells after 48 hrs by SRB assay; format: functional; settings: NCI-H522, 48 h
# [61] = read-out: LC50 (the source's name)
structure (smiles),measurement,setting,value
O=C(Nc1cc(C(F)(F)F)ccc1F)Nc1n[nH]c2ccccc12,GI50,[1],> 100 µM
same,GI50,[2],> 100 µM
same,GI50,[3],18.2 µM
same,GI50,[4],> 100 µM
same,GI50,[5],> 100 µM
same,GI50,[6],> 100 µM
same,GI50,[7],> 100 µM
same,GI50,[8],> 100 µM
same,GI50,[9],> 100 µM
same,Activity,[10],Active
same,GI50,[11],> 100 µM
same,GI50,[12],> 100 µM
same,GI50,[13],> 100 µM
same,GI50,[14],> 100 µM
same,GI50,[15],55.4 µM
same,GI50,[16],> 100 µM
same,GI50,[17],> 100 µM
same,GI50,[18],> 100 µM
same,GI50,[19],> 100 µM
same,GI50,[20],> 100 µM
same,GI50,[21],> 100 µM
same,GI50,[22],> 100 µM
same,GI50,[23],> 100 µM
same,GI50,[24],> 100 µM
same,GI50,[25],> 100 µM
same,GI50,[26],> 100 µM
same,GI50,[27],> 100 µM
same,GI50,[28],> 100 µM
same,GI50,[29],> 100 µM
same,GI50,[30],> 100 µM
same,GI50,[31],> 100 µM
same,GI50,[32],> 100 µM
same,GI50,[33],> 100 µM
same,GI50,[34],> 100 µM
same,GI50,[35],> 100 µM
same,GI50,[36],> 100 µM
same,Activity,[37],Active
same,GI50,[38],> 100 µM
same,GI50,[39],> 100 µM
same,GI50,[40],> 100 µM
same,GI50,[41],> 100 µM
same,GI50,[42],0.758 µM
same,TGI,[42],> 100 µM
same,CC50,[42]; [61],> 100 µM
same,GI50,[43],> 100 µM
same,GI50,[44],> 100 µM
same,GI50,[45],> 100 µM
same,GI50,[46],> 100 µM
same,GI50,[47],> 100 µM
same,GI50,[48],> 100 µM
same,GI50,[49],> 100 µM
same,GI50,[50],> 100 µM
same,GI50,[51],> 100 µM
same,GI50,[52],40.1 µM
same,GI50,[53],> 100 µM
same,GI50,[54],> 100 µM
same,GI50,[55],> 100 µM
same,GI50,[56],> 100 µM
same,GI50,[57],> 100 µM
same,GI50,[58],> 100 µM
same,GI50,[59],0.215 µM
same,TGI,[59],> 100 µM
same,CC50,[59]; [61],> 100 µM
same,GI50,[60],> 100 µM
